Measured values reported in paper PMC12811658, “Design, Synthesis, and Structural Evolution of Pseudo‐Natural Product IDO1 Inhibitors and Degraders” (Angewandte Chemie (International Ed. in English), 2025).

What was measured:
recombinant human IDO1 = target: T1, recombinant human IDO1 (Homo sapiens, UniProt P14902); assay: IDO1 enzymatic assay in vitro; assay type: biochemical; conditions: at 14 µM; pre-incubation 37 °C 45 min; mean ± SD
T1 construct: The GST-tag of IDO1 was removed to obtain untagged full-length IDO1l using PreScission protease; GST (N, cleaved yes); made in house; own inference
T1 sequence (P14902 whole entry): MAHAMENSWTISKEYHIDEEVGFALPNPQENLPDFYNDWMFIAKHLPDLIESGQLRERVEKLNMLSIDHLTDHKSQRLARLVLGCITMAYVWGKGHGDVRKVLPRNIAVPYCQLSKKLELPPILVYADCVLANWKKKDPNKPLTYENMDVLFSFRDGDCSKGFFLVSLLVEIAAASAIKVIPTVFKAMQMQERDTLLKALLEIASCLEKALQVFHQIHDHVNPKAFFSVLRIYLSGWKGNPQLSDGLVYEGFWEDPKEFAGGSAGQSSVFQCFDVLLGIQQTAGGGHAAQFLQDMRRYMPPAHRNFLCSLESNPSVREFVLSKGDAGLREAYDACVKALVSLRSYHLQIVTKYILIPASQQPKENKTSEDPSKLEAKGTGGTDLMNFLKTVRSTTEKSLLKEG

SKOV-3 tumor = assay: SKOV-3 tumor-bearing mouse model; assay type: in vivo, NSG immunodeficient mice; conditions: 30 mg kg−1 IP twice daily
Method: Incubation at 37 °C for 3 h. Representative data for n = 3. c) Time‐course of heme displacement from IDO1 detected by the absorbance at the Soret peak (404 nm) as a function of time. […] All curves were fit using a one‐site model with N = 1 and defined IDO1 concentration. Left plots show baseline corrected data, while right plots show integrated binding isotherms versus iDegs/IDO1 ratio. IDO1 protein (125 µM) was titrated into the stirred sample cell containing iDegs (25 µM, except for iDeg‐8 at 50 µM). Representative data for n = 3, except for iDeg‐9 (n = 2). g)–i) In vivo activity of iDeg‐6. NSG immunodeficient mice were injected with SKOV‐3 cells. Mice were treated with 18 intraperitoneal injections of iDeg‐6 (30 mg kg^−1) or vehicle. The pharmacological treatment was twice daily. Tumor volume was determined weekly by digital caliper. g) SKOV‐3 tumor growth curves in iDeg‐6‐treated mice (n = 12, green lines) or vehicle‐treated mice (n = 13, gray lines). Statistical analysis was performed by two‐way ANOVA: ****p < 0.001. h) Body weight changes during treatment window (mean values ± range). i) Survival data are shown by Kaplan‐Meier survival analysis. Mantel–Haenszel statistical analysis: p < 0.0001).
The limited clinical efficacy of IDO1 inhibitors is likely due in part to its non‐enzymatic functions that are not targeted by catalytic inhibition.^[ [32], [33], [34], [35], [36], [37], [38] ^] […] SKOV‐3 cells were subsequently engrafted into NSG immunodeficient mice to establish a SKOV‐3 tumor‐bearing model (Figure S11a). Mice were treated with iDeg‐6 at a dose of 30 mg kg^−1, administered twice daily for 18 days.
NSG female mice (NOD.Cg-PrkdcSCIDIl2rgtm1Wjl/SzJ) were purchased from Charles River (Calco, Italia) with 10 weeks age. […] Tumor volume was determined weekly by digital caliper from 10 days after tumor challenging to the endpoint of the experiment (day 80). […] All animal experiments were under the Amsterdam Protocol on animal protection and welfare: mice were monitored daily and euthanized when displaying excessive discomfort.

[1] = Pharmacokinetics of iDeg-6; assay type: in vivo, male C57Bl/6 mice; conditions: male, C57Bl/6, mouse, plasma
Method: In vivo pharmacology characterization was carried out at Pharmacelsus GmbH, Saarbrücken, Germany, using male C57Bl/6 mice. Food and water was provided ad libitum before and during each study. All experimental procedures were approved by and conducted in accordance with the regulations of the local Animal Welfare Authorities. Plasma samples were analysed by liquid chromatography tandem-mass spectrometry using a generic method. Pharmacokinetic parameters were calculated by non-compartmental analysis. […] Up to 120 mg/kg PO and 30 mg/kg IP no clinical signs were observed. […] Due to the larger plasma exposure of iDeg-6 the IP route was selected for efficacy studies.

C57Bl/6 mice = assay: Tolerability (dose escalation PO and IP); assay type: in vivo, male C57Bl/6 mice; conditions: for dose up to which no clinical signs were observed: dose escalation over 3-5 days
[2] = test system: IDO1 mRNA levels in SKOV-3 cells; assay: RT-qPCR of IDO1 expression; assay type: cell-based; conditions: 24 h
Method: a, IDO1 mRNA levels in SKOV-3 cells.
To assess IDO1 gene expression in the SKOV3 cell line, SKOV3 cells were seeded into 24-well plates. After 24 h, the cells were treated with the indicated concentrations of compounds, followed by an additional 24 h incubation.

[3] = target: IDO1 protein levels in BxPC3 cells (Homo sapiens, UniProt P14902); assay: IDO1 immunoblotting (degradation); assay type: cell-based; parameters: endogenous in cells; host or cells: BxPC3 (DSMZ), IFN-γ stimulated; conditions: 24 h incubation, mean ± SD
Chain of IDO1 protein levels in BxPC3 cells (P14902 whole entry): as above

Structure (SMILES): C#Cc1ccc(NC(=O)OC[C@]23CN(S(=O)(=O)c4ccc(C(C)(C)C)cc4C)C[C@H]2C[C@H]2C[C@@H]3C2(C)C)cc1 [98 (iDeg-6), ((3aS,4R,6R,7aS)-2-((4-(tert-butyl)-2-methylphenyl)sulfonyl)-5,5-dimethyloctahydro-3aH-4,6-methanoisoindol-3a-yl)methyl (4-ethynylphenyl)carbamate]
- inhibition at 14 µM (recombinant human IDO1): 40 ± 7%
- body weight (in words) (SKOV-3 tumor): no significantly negative impact on body weight
- overall survival (in words) (SKOV-3 tumor; Kaplan-Meier): significantly improved the overall survival time
- tumor growth (in words) (SKOV-3 tumor; p < 0.001 vs control): significant inhibition of tumor growth
- AUC(0-inf) ([1]; 1 mg/kg IV): 414 ng·h/mL
- C0 ([1]; 1 mg/kg IV): 1120 ng/mL
- clearance ([1]; 1 mg/kg IV): 40.3 mL/min/kg
- half-life ([1]; 1 mg/kg IV): 1.1 h
- Vd ([1]; 1 mg/kg IV, read-out: Vz): 3.82 L/kg
- AUC(0-inf) ([1]; 30 mg/kg IP): 7040 ng·h/mL
- Cmax ([1]; 30 mg/kg IP): 872 ng/mL
- bioavailability ([1]; 30 mg/kg IP): 57%
- half-life ([1]; 30 mg/kg IP): 4 h
- clinical signs (in words) (C57Bl/6 mice; 60 mg/kg IP, individual animals, shortly after administration): piloerection, subdued behavior
- dose up to which no clinical signs were observed (C57Bl/6 mice; IP): ≤ 30 mg/kg
- dose up to which no clinical signs were observed (C57Bl/6 mice; PO): Up to 120 mg/kg
- tolerability (in words) (C57Bl/6 mice; up to 30 mg kg−1 IP, no clinical signs): well tolerated
- IDO1 transcription (in words) [2]: without affecting its transcription
- Max. degradation (%) ([3]; 10 nM): 61 ± 12 (5) %
- Max. degradation (%) ([3]; 100 nM): 74 ± 13 (5) %
